Results from patent US7338778B2, “Luminescent method for determining cell oxygen consumption” (Becton, Dickinson and Company, priority 1991, dated 2008).
Converted amounts (≈) assume the structure as drawn.

What was measured:
Assay type in all cases: cell-based
[1] = tested on: E. coli (ATCC #25922); experiment: Overnight microdilution antimicrobial susceptibility test (reference MIC); conditions: Escherichia coli, ATCC25922; E. coli #25922, overnight microdilution
[2] = tested on: E. coli (ATCC #25922); experiment: Effect of antibiotics on oxygen consumption of E. coli, Ru(BiPy)3Cl2 indicator tray (Example 9); conditions: for susceptibility of E. coli by fluorescence counts: 4 hours; for Relative Fluorescence at 4 hrs.: 1×10^7 CFU/ml, 37° C.
Description: A 96 well Microtiter tray was produced essentially as in Example 1, except that tris-(2,2′ bipyridyl)-ruthenium (II) chloride hexahydrate (Aldrich Chemical Company, Milwaukee, Wis.) [Ru(BiPy)3Cl2] was substituted for Ru(DPP)3Cl2 in the silicone mixture. A second tray containing 9,10-diphenyl anthracene (DPA) was also prepared. All wells were charged with 150 ul of 1×10^7 CFU/ml E. coli (ATCC #25922) in broth. Table 3 lists the results at 0, 1, 2, 3, and 4 hours after addition of organisms.
(§1) A 0.5 McFarland suspension of E. coli (ATCC #25922) in Broth A (see Example 1) was prepared using an A-Just nephelometer. […] The trays were incubated at 37° C. for 4 hours and their fluorescence measured in a Fluoroskan II fluorometer.

[3] = tested on: E. coli (ATCC #25922); experiment: Effect of antibiotics on oxygen consumption of E. coli, DPA indicator tray (Example 10); conditions: for susceptibility of E. coli by fluorescence counts: 4 hours; for Relative Fluorescence at 4 hrs.: 1×10^7 CFU/ml, 37° C.
[4] = tested on: Ps. aeruginosa (BDMS Culture collection #N111); experiment: Overnight microdilution antimicrobial susceptibility test (reference MIC); conditions: Pseudomonas aeruginosa
[5] = tested on: E. coli (ATCC #25922); experiment: Visual reading of indicator tray fluorescence without a fluorometer (Example 13); conditions: E. coli #25922, 1×10^7 CFU/ml, 4 hours at 37° C., UV transilluminator
Description: (§2) The trays were incubated for 4 hours at 37° C. and subsequently placed on the stage of an ultraviolet transilluminator (#TX-365A, Spectronics Corp., Westbury, N.Y.) which served as an excitation source.

[6] = tested on: Ps. aeruginosa (BDMS Culture collection #N111); experiment: as above; conditions: 1×10^7 CFU/ml, 4 hours at 37° C., UV transilluminator
Description: as §2

[7] = tested on: E. coli (ATCC #25922); experiment: Effect of antibiotics on E. coli, Ru(DPP)3Cl2 indicator tray (Example 8); conditions: for susceptibility of E. coli by fluorescence counts: 4 hours; for Relative Fluorescence at 4 hrs.: 1×10^7 CFU/ml, 37° C.
Description: as §1
The fluorescent compound tris 4,7-diphenyl-1,10-phenanthroline ruthenium (II) chloride (Ru(DPP)3Cl2) was synthesized using the procedure of Watts and Crosby (J. Am.Chem. Soc. 93, 3184(1971)). A total of 3.6 mg of the compound was dissolved in 2.0 ml dimethyl sulfoxide (D-5879, Sigma Chemical, St. Louis, Mo.) and the resultant solution was then added slowly, with stirring, to 1300 ml silicone rubber forming solution (Water Based Emulsion #3-5024, Dow Corning, Midland, Mich.). A 35 microliter aliquot of the mixture was subsequently dispensed into each well of a 96 well, flat bottom, white microtiter tray (#011-010-7901, Dynatech, Chantilly, Va.), and the system was subsequently cured overnight in a low humidity (less than 25% RH), 60° C. incubator. After curing, the trays were washed by either soaking or by filling and emptying each well several times with each of the following reagents; a) absolute ethanol, b) 0.1 M phosphate buffer pH 7.2, c) hot distilled water (about 45° C.) and d) ambient temperature distilled water.

[8] = tested on: E. coli (ATCC #11775); experiment: Effect of open and closed systems on oxygen measurements with cefuroxime (Example 11); conditions: 4 and 8 ug/ml, 5 hours, 37° C.
Description: A 96 well indicator microtiter tray was produced substantially as in Example 1. Duplicate wells in the tray were supplemented with the antibiotic cefuroxime in the concentration range of 0.25 to 32 ug/ml. One hundred and fifty microliters of a suspension of E. coli (ATCC #11775) was added to the wells to yield about 3×10^7 CFU/ml. One of each duplicate well was overlaid with mineral oil to inhibit diffusion of oxygen into the wells, the other duplicate was left open to the air. […] This difference is due, presumably to the time lag needed for the antibiotic to affect the organism; it is believed that during this time the oxygen is brought to an artificially low level by the ongoing metabolic activity of the organisms.

[9] = all concentrations (0.5 to 8 ug/ml)

## CO[C@@]1(NC(=O)Cc2cccs2)C(=O)N2C(C(=O)O)=C(COC(N)=O)CS[C@@H]21 [Cefoxitin, cefoxitin]
[1]
  MIC: 4 µg/mL (≈ 9.36 µM)
[2]; 0.5, 1, and 2 ug/ml
  susceptibility of E. coli by fluorescence counts: resistant
[2]; 4 and 8 ug/ml
  susceptibility of E. coli by fluorescence counts: sensitive
[2]; antibiotic 0.5 ug/mL
  Relative Fluorescence at 4 hrs.: 1171
[2]; antibiotic 1 ug/mL
  Relative Fluorescence at 4 hrs.: 1491
[2]; antibiotic 2 ug/mL
  Relative Fluorescence at 4 hrs.: 1338
[2]; antibiotic 4 ug/mL
  Relative Fluorescence at 4 hrs.: 832
[2]; antibiotic 8 ug/mL
  Relative Fluorescence at 4 hrs.: 559
[3]; 0.5, 1, 2 ug/ml
  susceptibility of E. coli by fluorescence counts: resistant
[3]; 4 and 8 ug/ml
  susceptibility of E. coli by fluorescence counts: sensitive
[3]; antibiotic 0.5 ug/mL
  Relative Fluorescence at 4 hrs.: 192
[3]; antibiotic 1 ug/mL
  Relative Fluorescence at 4 hrs.: 173
[3]; antibiotic 2 ug/mL
  Relative Fluorescence at 4 hrs.: 164
[3]; antibiotic 4 ug/mL
  Relative Fluorescence at 4 hrs.: 101
[3]; antibiotic 8 ug/mL
  Relative Fluorescence at 4 hrs.: 95
[4]
  MIC: > 64 µg/mL
[5]
  MIC Visual (lowest concentration of antibiotic to significantly lower the fluorescent emissions): 8 µg/mL
[6]
  MIC Visual (lowest concentration of antibiotic to significantly lower the fluorescent emissions): >64 µg/mL
[7]; 0.5, 1, and 2 ug/ml
  susceptibility of E. coli by fluorescence counts: resistant
[7]; 4 and 8 ug/ml
  susceptibility of E. coli by fluorescence counts: sensitive
[7]; antibiotic 0.5 ug/mL
  Relative Fluorescence at 4 hrs.: 8181
[7]; antibiotic 1 ug/mL
  Relative Fluorescence at 4 hrs.: 8270
[7]; antibiotic 2 ug/mL
  Relative Fluorescence at 4 hrs.: 7120
[7]; antibiotic 4 ug/mL
  Relative Fluorescence at 4 hrs.: 3692
[7]; antibiotic 8 ug/mL
  Relative Fluorescence at 4 hrs.: 2974

## CO/N=C(\C(=O)N[C@@H]1C(=O)N2C(C(=O)O)=C(COC(N)=O)CS[C@H]12)c1ccco1 [Cefuroxime, cefuroxime]
[1]
  MIC: 8 µg/mL (≈ 18.9 µM)
[8]; closed system overlaid with mineral oil
  effect on oxygen consumption by fluorescence as percent of growth control: did not show an effect on oxygen consumption
[8]; wells with no mineral oil (open to air)
  susceptibility of organism by fluorescence as percent of growth control: sensitive
[2]; [9]
  susceptibility of E. coli by fluorescence counts: resistant
[2]; antibiotic 0.5 ug/mL
  Relative Fluorescence at 4 hrs.: 1155
[2]; antibiotic 1 ug/mL
  Relative Fluorescence at 4 hrs.: 1539
[2]; antibiotic 2 ug/mL
  Relative Fluorescence at 4 hrs.: 1183
[2]; antibiotic 4 ug/mL
  Relative Fluorescence at 4 hrs.: 1170
[2]; antibiotic 8 ug/mL
  Relative Fluorescence at 4 hrs.: 1194
[3]; [9]
  susceptibility of E. coli by fluorescence counts: resistant
[3]; antibiotic 0.5 ug/mL
  Relative Fluorescence at 4 hrs.: 183
[3]; antibiotic 1 ug/mL
  Relative Fluorescence at 4 hrs.: 197
[3]; antibiotic 2 ug/mL
  Relative Fluorescence at 4 hrs.: 195
[3]; antibiotic 4 ug/mL
  Relative Fluorescence at 4 hrs.: 160
[3]; antibiotic 8 ug/mL
  Relative Fluorescence at 4 hrs.: 161
[4]
  MIC: > 64 µg/mL
[5]
  MIC Visual (lowest concentration of antibiotic to significantly lower the fluorescent emissions): 16 µg/mL
[6]
  MIC Visual (lowest concentration of antibiotic to significantly lower the fluorescent emissions): >64 µg/mL
[7]; [9]
  susceptibility of E. coli by fluorescence counts: resistant
[7]; antibiotic 0.5 ug/mL
  Relative Fluorescence at 4 hrs.: 7902
[7]; antibiotic 1 ug/mL
  Relative Fluorescence at 4 hrs.: 7983
[7]; antibiotic 2 ug/mL
  Relative Fluorescence at 4 hrs.: 7161
[7]; antibiotic 4 ug/mL
  Relative Fluorescence at 4 hrs.: 7598
[7]; antibiotic 8 ug/mL
  Relative Fluorescence at 4 hrs.: 6469
